# ChEMBL document CHEMBL1128757, “Linear peptide ETA antagonists: rational design and practical derivatization of N-terminal amino- and imino-carbonylated tripeptide derivatives” (Bioorg Med Chem Lett, 1995)
# Assays:
# Endothelin-1 receptor [1] = biological target: T1, Endothelin-1 receptor (Sus scrofa, UniProt Q29010); assay: Binding affinity against ETA receptor in porcine aortic smooth muscle membrane was determined
# T1 sequence (Q29010 whole entry): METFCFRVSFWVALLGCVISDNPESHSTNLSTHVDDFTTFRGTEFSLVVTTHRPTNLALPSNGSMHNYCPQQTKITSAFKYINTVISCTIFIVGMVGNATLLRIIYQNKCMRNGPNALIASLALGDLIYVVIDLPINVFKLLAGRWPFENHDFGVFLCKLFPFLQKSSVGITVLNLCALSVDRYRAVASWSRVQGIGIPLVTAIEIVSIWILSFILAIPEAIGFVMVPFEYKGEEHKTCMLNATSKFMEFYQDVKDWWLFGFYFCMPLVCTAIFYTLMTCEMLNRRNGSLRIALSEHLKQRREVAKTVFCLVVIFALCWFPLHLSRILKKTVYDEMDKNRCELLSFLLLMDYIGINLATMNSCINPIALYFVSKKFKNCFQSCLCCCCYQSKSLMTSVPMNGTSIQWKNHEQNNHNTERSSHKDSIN
# Endothelin-1 receptor [2] = biological target: T1, Endothelin-1 receptor; assay: Binding affinity determined against ETA receptor in porcine aortic smooth muscle membrane
# Endothelin-1 receptor [3] = biological target: T1, Endothelin-1 receptor; assay: Binding affinity against ETA receptor in porcine aortic smooth muscle membrane
# Endothelin-1 receptor [4] = biological target: T1, Endothelin-1 receptor; assay: Antagonistic activity towards ET- l-induced contraction in porcine coronary arteries; assay type: functional; details: read-out: pA2 (converted)
Structure (SMILES),IC50 max (Endothelin-1 receptor [2]),IC50 (Endothelin-1 receptor [3]),further results
CC(C)CC(=O)N[C@@H](CC(C)C)C(=O)N[C@H](Cc1c[nH]c2ccccc12)C(=O)N[C@H](CC(=O)O)C(=O)O,,,IC50 (Endothelin-1 receptor [1]): 25000 nM
CC(C)C[C@H](NC(=O)[C@H](N)C(C)C)C(=O)N[C@H](Cc1c[nH]c2ccccc12)C(=O)N[C@H](CC(=O)O)C(=O)O,,,IC50 (Endothelin-1 receptor [1]): 32000 nM
"CC(C)C[C@H](NC(=O)OC(C)(C)C)C(=O)NC(Cc1c[nH]c2ccccc12)C(=O)NCCC(=O)O (single isomer, unassigned)",270 nM,420 nM,
"CC(C)C[C@H](NC(=O)N(CCO)C(C)(C)C)C(=O)NC(Cc1c[nH]c2ccccc12)C(=O)NCCC(=O)O (single isomer, unassigned)",53 nM,,
"CC(C)C[C@H](NC(=O)Cc1cccs1)C(=O)NC(Cc1c[nH]c2ccccc12)C(=O)NCCC(=O)O (single isomer, unassigned)",420 nM,540 nM,
"Cc1cccc(NC(=O)N[C@@H](CC(C)C)C(=O)NC(Cc2c[nH]c3ccccc23)C(=O)NCCC(=O)O)c1 (single isomer, unassigned)",,2100 nM,
"CC(C)C[C@H](NC(=O)NCc1ccccc1)C(=O)NC(Cc1c[nH]c2ccccc12)C(=O)NCCC(=O)O (single isomer, unassigned)",,3200 nM,
"CC(C)CC(=O)N[C@@H](CC(C)C)C(=O)NC(Cc1c[nH]c2ccccc12)C(=O)NCCC(=O)O (single isomer, unassigned)",,,IC50 (Endothelin-1 receptor [1]): 3900 nM
"CC(C)C[C@H](NC(=O)NC12CC3CC(CC(C3)C1)C2)C(=O)NC(Cc1c[nH]c2ccccc12)C(=O)NCCC(=O)O (single isomer, unassigned)",330 nM,,
"CC(C)C[C@H](NC(=O)Nc1cccc(Cl)c1)C(=O)NC(Cc1c[nH]c2ccccc12)C(=O)NCCC(=O)O (single isomer, unassigned)",,2100 nM,
"CC(C)C[C@H](NC(=O)N(C(C)C)C(C)C)C(=O)NC(Cc1c[nH]c2ccccc12)C(=O)NCCC(=O)O (single isomer, unassigned)",57 nM,,
"CC(C)C[C@H](NC(=O)NCC(C)(C)C)C(=O)NC(Cc1c[nH]c2ccccc12)C(=O)NCCC(=O)O (single isomer, unassigned)",560 nM,,

# Continued, in another order:
IC50 max (Endothelin-1 receptor [2]),IC50 (Endothelin-1 receptor [3]),Structure (SMILES),further results
81 nM,,"CC(C)C[C@H](NC(=O)N1CCCCC1)C(=O)NC(Cc1c[nH]c2ccccc12)C(=O)NCCC(=O)O (single isomer, unassigned)",
310 nM,,"CC(C)C[C@H](NC(=O)N1CCCC1)C(=O)NC(Cc1c[nH]c2ccccc12)C(=O)NCCC(=O)O (single isomer, unassigned)",
55 nM,,"CC(C)C[C@H](NC(=O)N1CCCCCCCCC1)C(=O)NC(Cc1c[nH]c2ccccc12)C(=O)NCCC(=O)O (single isomer, unassigned)",
,6700 nM,"CC(C)C[C@H](NC(=O)CC(C)(C)C)C(=O)NC(Cc1c[nH]c2ccccc12)C(=O)NCCC(=O)O (single isomer, unassigned)",
51 nM,,"CC(C)C[C@H](NC(=O)N1C(C)CCCC1C)C(=O)NC(Cc1c[nH]c2ccccc12)C(=O)NCCC(=O)O (single isomer, unassigned)",
580 nM,,"CC(C)C[C@H](NC(=O)N1CCC(C)CC1)C(=O)NC(Cc1c[nH]c2ccccc12)C(=O)NCCC(=O)O (single isomer, unassigned)",
620 nM,970 nM,"CC(C)C[C@H](NC(=O)CC1CCCC1)C(=O)NC(Cc1c[nH]c2ccccc12)C(=O)NCCC(=O)O (single isomer, unassigned)",
150 nM,230 nM,"CC(C)C[C@H](NC(=O)NC(C)(C)C)C(=O)NC(Cc1c[nH]c2ccccc12)C(=O)NCCC(=O)O (single isomer, unassigned)",
530 nM,,"CC(C)C[C@H](NC(=O)N1CCc2ccccc2C1)C(=O)NC(Cc1c[nH]c2ccccc12)C(=O)NCCC(=O)O (single isomer, unassigned)",
61 nM,,"CC(C)C[C@H](NC(=O)N1CCCCCC1)C(=O)NC(Cc1c[nH]c2ccccc12)C(=O)NCCC(=O)O (single isomer, unassigned)",Kb (Endothelin-1 receptor [4]): 60.3 nM
190 nM,,"CC(C)C[C@H](NC(=O)N1C(C)(C)CCCC1(C)C)C(=O)NC(Cc1c[nH]c2ccccc12)C(=O)NCCC(=O)O (single isomer, unassigned)",
